Measured values reported in US4692447A, “Tricyclic dihydropyridazinones and pharmaceutical compositions containing them” (Boehringer Biochemia Robin, S.p.A., priority 1984, dated 1987).

Legend:
[1] = acute toxicity in mice (LD50); conditions: mouse, in vivo
Experimental: First of all, the compounds of the present invention are characterized by a low acute toxicity and a very favourable therapeutic index.
The compounds were administered by oral and intraperitoneal route.

[2] = tested on: sudden death induced by arachidonate in mice; assay: protection against sudden death induced by arachidonate in mice; type: in vivo; conditions: oral; for increase of protection as compared with ASA: screening dosage 20 mg/kg vs ASA 200 mg/kg; for protection against sudden death compared with ASA: 20 mg/kg vs ASA 200 mg/kg
Excerpt: The same compounds from BBR-1507 to BBR-1513, given orally, protected against sudden death induced by arachidonate in mice.

SHR Rats = assay: hypotensive effect in conscious spontaneously hypertensive rats (Table 2); type: in vivo; design: ΔBP sist: unit not given here
Excerpt: (§1) As it is shown in Table 2, the decrease of the systolic median blood pressure was long lasting and the length of the effect was dose-related.

Normotensive rats = assay: hypotensive effect in conscious normotensive rats (Table 2); type: in vivo; conditions: os
Excerpt: as §1

[3] = tested on: conscious normal and in spontaneously hypertensive rats; assay: hypotensive effect in conscious normal and spontaneously hypertensive rats; type: in vivo
Experimental: This is particularly the case of compounds like as BBR-1511, 1513 and 1509 which show only a little (5-8 mmHg) even if prolonged hypotensive effect when tested in conscious normal and in spontaneously hypertensive rats at doses ranging from 100 to 200 mg/kg by intraperitoneal route.

[4] = tested on: paw edema induced by carrageenin; assay: paw edema induced by carrageenin; type: in vivo; conditions: 20, 60 and 200 mg/kg; for reducing the paw edema induced by carrageenin: oral route; for activity in paw edema relative to ASA: oral, more active than ASA
[5] = tested on: platelet-rich plasma (PRP) from guinea pigs; assay: in vitro platelet aggregation in platelet-rich plasma, Born aggregometer; type: cell-based; conditions: vs ASA
[6] = tested on: sudden death induced by arachidonate in mice; assay: protection against sudden death induced by arachidonate in mice; conditions: vs ASA
[7] = intraperitoneal and oral, conscious normotensive and SHR rats, qualitative
[8] = conscious normal and SHR rats, 100 to 200 mg/kg, intraperitoneal, prolonged

| Compound | LD50 ([1]; ip) [mg/kg] | LD50 ([1]; po, os) [mg/kg] | increase of protection as compared with ASA [2] | duration (SHR Rats; os, 3.125 mg/kg) [h] | ΔBP sist (SHR Rats; os, 3.125 mg/kg) | duration (SHR Rats; os, 6.25 mg/kg) [h] | ΔBP sist (SHR Rats; os, 6.25 mg/kg) | duration (SHR Rats; os, 12.5 mg/kg) [h] | ΔBP sist (SHR Rats; os, 12.5 mg/kg) | duration (Normotensive rats; 12.5 mg/kg) [h] | ΔBP sist (Normotensive rats; 12.5 mg/kg) | hypotensive effect [3, 7] | reducing the paw edema induced by carrageenin [4] | activity in paw edema relative to ASA [4] | inhibiting platelet aggregation in vitro compared with ASA [5] | protection against sudden death compared with ASA [2] | hypotensive effect [3, 8] | inhibiting platelet aggregation in vivo compared with ASA [6] | other results |
| --- | --- | --- | --- | --- | --- | --- | --- | --- | --- | --- | --- | --- | --- | --- | --- | --- | --- | --- | --- |
| CC(=O)Nc1ccc2c(c1)CC1CC(=O)NN=C21 (racemic) [BBR-1507, dl-7-acetylamino-4,4a-dihydro-5H-indeno-[1,2-c]pyridazin-3-one] | 310 | > 1000 | 20-30% | 3 | -25 | > 4 | -50 | 5.6 | -58 | 3 | -26 | more evident and prolonged hypotensive effect | effective in reducing the paw edema | 1.5-2 times | – | – | – | – | duration (SHR Rats; i.p., 50 mg/kg): > 4 h; ΔBP sist (SHR Rats; i.p., 50 mg/kg): -55; duration (SHR Rats; os, 1.56 mg/kg): 1.5 h; ΔBP sist (SHR Rats; os, 1.56 mg/kg): -18; duration (Normotensive rats; 6.25 mg/kg): 3 h; ΔBP sist (Normotensive rats; 6.25 mg/kg): -8 |
| CC(=O)Nc1ccc2c(c1)CCC1CC(=O)NN=C21 (racemic) [BBR-1508, dl-8-acetylamino-4,4a,5,6-tetrahydro-2H-benzo(h)-cinnolin-3-one] | 360 | > 1000 | 40% | 2 | -30 | 4 | -30 | 4.6 | -55 | 4 | -20 | more evident and prolonged hypotensive effect | effective in reducing the paw edema | 1.5-2 times | – | – | – | – | duration (SHR Rats; i.p., 12.5 mg/kg): 3 h; ΔBP sist (SHR Rats; i.p., 12.5 mg/kg): -50; duration (SHR Rats; i.p., 25 mg/kg): 3 h; ΔBP sist (SHR Rats; i.p., 25 mg/kg): -90; duration (SHR Rats; os, 25 mg/kg): 4.6 h; ΔBP sist (SHR Rats; os, 25 mg/kg): -65; ΔBP sist (Normotensive rats; 3.125 mg/kg): inactive; duration (Normotensive rats; 6.25 mg/kg): 1.5 h; ΔBP sist (Normotensive rats; 6.25 mg/kg): -8; duration (Normotensive rats; 25 mg/kg): 4 h; ΔBP sist (Normotensive rats; 25 mg/kg): -48 |
| CC(=O)Nc1ccc2c(c1)CCCC1CC(=O)NN=C21 (racemic) [BBR-1509, dl-8-acetylamino-2,4,4a,5,6,7-hexahydro-3H-benzo[6,7]-cyclohepten[1,2-c]-pyridazin-3-one] | > 1000 | > 1000 | – | – | – | – | – | – | – | – | – | – | inactive | – | at least equiactive as ASA | equiactive as acetylsalicylic acid (ASA) | 5-8 mmHg | at least equiactive as ASA | – |
| Nc1ccc2c(c1)CCC1CC(=O)NN=C21 (racemic) [BBR-1510, dl-8-amino-4,4a,5,6-tetrahydro-2H-benzo(h)-cinnolin-3-one] | 610 | > 1000 | 20-30% | 2 | -46 | 3.4 | -40 | > 3 | -60 | > 6 | -28 | more evident and prolonged hypotensive effect | effective in reducing the paw edema | 1.5-2 times | – | – | – | – | duration (SHR Rats; i.p., 6.25 mg/kg): 1 h; ΔBP sist (SHR Rats; i.p., 6.25 mg/kg): -55; duration (SHR Rats; i.p., 12.5 mg/kg): > 4 h; ΔBP sist (SHR Rats; i.p., 12.5 mg/kg): -80; duration (SHR Rats; os, 1.56 mg/kg): 1 h; ΔBP sist (SHR Rats; os, 1.56 mg/kg): -48 |
| CCCCN1N=C2c3ccc(N)cc3CCC2CC1=O (racemic) [BBR-1511] | 1000 | > 1000 | – | – | – | – | – | – | – | – | – | – | – | – | – | equiactive as acetylsalicylic acid (ASA) | 5-8 mmHg | – | – |
| Nc1ccc2c(c1)CC1CC(=O)NN=C21 (racemic) [BBR-1512, dl-7-amino-4,4a-dihydro-5H-indeno[1,2-c]-pyridazin-3-one] | 200 | 400 | 20-30% | – | – | – | – | – | – | – | – | – | – | – | – | – | – | – | – |
| Nc1ccc2c(c1)CCCC1CC(=O)NN=C21 (racemic) [BBR-1513, dl-9-amino-2,4,4a,5,6,7-hexahydro-3H-benzo-[6,7]-cyclohepten[1,2-c]-pyridazin-3-one] | 483 | 700 | – | – | – | – | – | – | – | – | – | – | scarcely effective | – | at least equiactive as ASA | equiactive as acetylsalicylic acid (ASA) | 5-8 mmHg | at least equiactive as ASA | – |
| O=C1CC2CCc3cc(NC(=O)CCl)ccc3C2=NN1 (racemic) [BBR-1514, dl-8-chloroacetylamino-4,4a,5,6-tetrahydro-2H-benzo(h)-cinnolin-3-one] | > 1000 | > 1000 | – | – | – | – | – | – | – | – | – | – | inactive | – | at least equiactive as ASA | – | – | at least equiactive as ASA | – |
